Assay type in all cases: cell-based, mouse
Test [1] relates to α7 integrin (LacZ reporter in α7+/LacZ myotubes). The test can be described thus: Myotube α7 integrin FDG assay (Burkin assay in myotubes, 96-well). Particulars: myotubes.
Test [2] has as its system β-galactosidase in CMV-LacZ C2C12 myotubes. The test can be described thus: CMV-LacZ secondary screen in C2C12 myotubes (β-Gal stabilizing assay). Particulars: C2C12 CMV-LacZ myotubes, fold relative to DMSO. The method, boiled down: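 First, C2C12 myoblasts were transfected with a linearized CMV-LACZ vector and clonal lines selected by FDG β-gal assay. Then cells were exposed to compounds at 0.5, 1, 5, 10, 20 and 40 μM in 96-well format, two replicates each, and β-gal measured.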

Test [3] deals with α7 integrin (LacZ reporter in α7βgal+/− myoblasts). The test can be described thus: Myoblast α7+/LacZ integrin FDG assay (Burkin assay in myoblasts, 96-well). Particulars: α7+/LacZ myoblasts, 96-well.
The test system of test [4] is β-galactosidase in CMV-LacZ C2C12 myoblasts. The test can be described thus: CMV-LacZ secondary screen in C2C12 myoblasts (β-Gal stabilizing assay). Particulars: CMV-LacZ C2C12 myoblasts. In short, it runs like this:
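A secondary screen identifies compounds that stabilize β-gal independently of the native promoter, using CMV-LacZ C2C12 cells. Curves span 0.5–40 μM at six levels, in duplicate.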

Molecules are shown by their SMILES.

As to `COc1ccc(C(=O)Cn2nnc(-c3ccccc3NC(=O)c3ccco3)n2)cc1` [MLS000072290-01], the “Burkin Assay in Myotubes, α7 integrin LacZ reporter signal relative to DMSO” value in test [1] (0.5 uM) came to 1.109; in test [1] (1 uM), 1.121; in test [1] (5 uM), 0.9096; in test [1] (10 uM), 0.8405; in test [1] (20 uM), 0.475; in test [1] (40 uM), 0.1784. Moreover, the “CMV-LACZ in Myotubes, signal relative to DMSO” value in test [2] (0.5 uM) is listed as 0.9362; in test [2] (1 uM) it was 1.1495; in test [2] (5 uM), 1.3265; in test [2] (10 uM), 1.1459; in test [2] (20 uM) it was 1.3484; in test [2] (40 uM), 1.0653. Moreover, the “Burkin Assay in Myoblasts, signal relative to DMSO” value amounted to 1.405 in test [3] (0.5 uM); 1.196 in test [3] (1 uM); 0.7334 in test [3] (5 uM); 0.6517 in test [3] (10 uM); 0.3984 in test [3] (20 uM); 0.2238 in test [3] (40 uM). Further, the “CMV-LACZ in Myoblasts (β-galactosidase activity relative to DMSO)” value in test [4] (0.5 uM) came out at 1.0579; in test [4] (1 uM), 0.9000; in test [4] (5 uM), 1.4390; in test [4] (10 uM) it was 1.3303; in test [4] (20 uM) it was 0.3911; in test [4] (40 uM), 0.2915.
For the compound `COc1cccc(CN2CCN(Cc3ccco3)CC2)c1.O=C(O)C(=O)O` [MLS001211139-01], the “Burkin Assay in Myotubes, α7 integrin LacZ reporter signal relative to DMSO” value in test [1] (0.5 uM) was determined as 1.167; in test [1] (1 uM), 1.288; in test [1] (5 uM), 1.003; in test [1] (10 uM) it was 0.9425; in test [1] (20 uM) it was 0.8283; in test [1] (40 uM), 0.7547. The “CMV-LACZ in Myotubes, signal relative to DMSO” value in test [2] (0.5 uM) was 0.9281; in test [2] (1 uM), 0.8948; in test [2] (5 uM), 1.1755; in test [2] (10 uM), 1.0196; in test [2] (20 uM), 0.8259; in test [2] (40 uM), 1.0224. The “Burkin Assay in Myoblasts, signal relative to DMSO” value in test [3] (0.5 uM) stood at 1.2392; in test [3] (1 uM), 1.136; in test [3] (5 uM), 1.065; in test [3] (10 uM) it was 0.9683; in test [3] (20 uM), 1.218; in test [3] (40 uM), 1.216. In addition, the “CMV-LACZ in Myoblasts (β-galactosidase activity relative to DMSO)” value in test [4] (0.5 uM) was determined as 0.9691; in test [4] (1 uM), 0.7347; in test [4] (5 uM), 0.9500; in test [4] (10 uM), 0.8608; in test [4] (20 uM), 1.0659; in test [4] (40 uM) it was 0.8744.

Source of the values: US9980943B2, “Methods of treating muscular dystrophy” (BOARD OF REGENTS OF THE NEVADA SYSTEM OF HIGHER EDUCATION, …, priority 2013, dated 2018).
